Experiments:
[1] = target: T1, norepinephrine transporter (NET) (Homo sapiens, UniProt P23975); assay: competition with ^3H-NE for uptake by SK-N-SH cells; assay type: cell-based; settings: for inhibition of the uptake/internalization of ^3H-NE (competition with ^3H-NE): 1 hour, tested up to 100 μM; for substrate of NET compared with MIBG: competition with ^3H-NE
T1 construct: human neuroblastoma cells SK-N-SH, which are known to express the transporter NET in large quantity; host or cells: SK-N-SH human neuroblastoma cells
T1 sequence (P23975 whole entry): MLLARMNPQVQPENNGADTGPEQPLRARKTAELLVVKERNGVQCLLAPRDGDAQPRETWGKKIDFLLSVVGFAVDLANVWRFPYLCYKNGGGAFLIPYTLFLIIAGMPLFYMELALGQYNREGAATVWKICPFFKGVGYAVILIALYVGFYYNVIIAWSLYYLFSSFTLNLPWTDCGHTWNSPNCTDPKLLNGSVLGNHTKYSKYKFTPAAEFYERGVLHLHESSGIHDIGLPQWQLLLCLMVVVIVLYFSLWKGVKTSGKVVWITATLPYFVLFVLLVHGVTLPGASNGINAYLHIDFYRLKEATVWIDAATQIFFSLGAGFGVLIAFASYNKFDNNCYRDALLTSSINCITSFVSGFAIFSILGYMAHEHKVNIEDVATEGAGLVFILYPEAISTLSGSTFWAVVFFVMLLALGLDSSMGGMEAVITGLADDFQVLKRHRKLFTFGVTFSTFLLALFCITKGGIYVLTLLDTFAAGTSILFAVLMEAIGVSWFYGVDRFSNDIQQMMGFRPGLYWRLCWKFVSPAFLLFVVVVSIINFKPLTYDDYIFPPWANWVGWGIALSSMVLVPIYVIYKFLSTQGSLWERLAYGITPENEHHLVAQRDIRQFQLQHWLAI
Description: The ability of the ^89Y-DOTA-BG chelate (1a, MC4324) (non-radioactive analogue of the compound of Formula II, 1 or MC4324) to act as substrate of NET has been evaluated in competition experiments with the tritiated endogenous substrate ^3H-NE for the uptake by the human neuroblastoma cells SK-N-SH, which are known to express the transporter NET in large quantity. […] This provides the ability to prepare radio-marked versions of the chelate of Formula II (or MC4324) with an even low specific activity, because the absence of competition for NET between the chelate (MC4324) and the free binder 9 (MC4325) doesn't compromise the bonding ability to NET of the chelate (compound of Formula II, MC4324) also in the presence of an excess of free binder 9 (MC4325).
FIG. 3 depicts the competition of the ^89Y-DOTA-BG chelate (1a, MC4324) (non-radioactive analogue of the compound of Formula II, 1 or MC4324) and of free binder 9 (MC4325) with ^3H-NE (50 nM, 1 hour incubation, T=37° C.) for the uptake by the SK-N-SH cells. ^1H-NE a 20 μM and MIBG @ 2 μM have been used as positive controls.
^3H-NE has been purchased from Perkin Elmer. To measure the initial cell uptake speeds of ^3H-NE, the cells have been grown for 16 hours in the presence of serum only, then incubated with binder medium (EMEM containing 0.2% BSA and 20 mM Hepes, pH 7.5) for 10 minutes by heating in a water bath at 37° C. The bond has been initiated by adding 0.5 ml per well of 50 nM ^3H-NE to the binder medium for […], the plates have then been placed on ice and washed three times with frozen PBS. Thus, the cell monolayers have been dried and lysed with […]. The cpm (“counts” per minute) have been determined separately in the different wells in triple for each time. By cpm is meant “counts” or “hits” per minute, i.e. the nuclear disintegrations that occur in one minute. These disintegrations come from inside the cells after these have been, following the order below: 1) incubated with ^3H-NE, 2) washed with PBS to eliminate ^3H-NE remained outside the cells, 3) lysed for better detecting the radioactivity due to the internalized ^3H-NE only.
The background bond has been determined in parallel in a fourth well containing a 400 times molar excess of non-marked ^1H-NE (“cold”). For the competition study, the cells have been plated as above, and thus incubated for 1 hour with 50 nM ^3H-NE in binder medium in the absence and presence of the ^89Y-DOTA-BG chelate (compound of Formula II, 1a or MC4324) (non-radioactive analogue of the compound of Formula II, 1 or MC4324) and free binder 9 (MC4325) at different concentrations. The radioactivity has been determined separately in the wells in triple for each concentration value. The uptake of ^3H-NE has been expressed as total radioactivity percentage normalized for mg of protein.
The ability of the “cold” chelates of Formula III (10a′, MC4801) and IV (10b′, MC4803) to act as substrates of NET has been evaluated in competition experiments with the tritiated endogenous substrate ^3H-NE for the uptake by the human neuroblastoma cells SK-N-SH, which are known to express the transporter NET in large quantity. […] Therefore also in this case it is possible to prepare radio-marked versions of the chelates of Formula III (10a, MC4801) and IV (10b, MC4803) with low specific activity, as the absence of competition for NET between the chelates 10a,b (MC4801 and MC4803) and the respective free binders 13a,b (MC4802 and MC4804) doesn't compromise the bonding ability to NET of the chelates [compounds of Formula III (10a, MC4801) and IV (10b, MC4803)] also in the presence of an excess of free binders 13a,b (MC4802 and MC4804). […]

[2] = tested on: human neuroblastoma line SK-N-SH; assay: cytotoxic effects in SK-N-SH cells; assay type: cell-based; settings: up to the maximum concentration tested (100 μM)
[3] = chemical stability in physiological conditions (PBS buffer, 37° C., analytical HPLC); assay type: physicochemical; settings: for Area 1 (chromatographic peak of compound 1a) / Area (1 + 2) (peaks of compound 1a and impurity 2): PBS, 37° C.
Experimental: The stability of the chelate ^89Y-DOTA-BG (1a, MC4324) (non-radioactive analogue of the compound of Formula II, 1 or MC4324) in physiological conditions has been evaluated by analysis with analytical HPLC (Shimadzu Nexera chromatograph equipped with a SPD-M20A PDA detector; Hypersil ODS GOLD 250×4.6 mm column; eluent: MeOH/H2O 5:95 v/v+0.02% TFA, flow: 1.0 ml/min; UV detection 214 nm) repeated at regular time intervals after having solubilized it in PBS buffer (c=0.9 mg/ml) and kept at T=37° C.
FIG. 2 depicts the HPLC plot relative to the compound ^89Y-DOTA-BG (1a) solubilized in PBS buffer (c=0.9 mg/ml) and at T=37° C. time t=0 min (A), t=21 hours (B) and t=5 days (C). […]

[4] = stability in human serum (release of ^90Y^3+ to serum proteins); assay type: in vitro ADME; settings: 32 MBq per 16 ml, T=37° C., 14 days
Experimental: The stability in serum of the […] chelate of Formula II (1 or MC4324) has been evaluated by measuring the release of the metal cation ^90Y^3+ from the chelate to the serum proteins during 14 days in which it has been kept in physiological conditions. Briefly, the ^90Y-DOTA-BG chelate of Formula II (1 or MC4324) has been incubated with human serum (32 MBq for 16 ml of serum) at T=37° C. At regular time intervals serum aliquots have been collected and, by using centrifuge filter tubes (Amicon® Ultra-4 3K, Merck Millipore) and by centrifuging at 5500 g, the serum proteins have been separated from the non-protein fraction of serum and the radioactivity of both fractions has been measured with a liquid scintillation β counter (scintillation liquid used is Perkin Elmer ULTIMA GOLD).
The stability in serum of the chelates of Formula III (10a, MC4801) and IV (10b, MC4803) has been evaluated by measuring the release of the metal cation ^90Y^3+ from the chelates to the serum proteins during 14 days in which they have been kept in physiological conditions. Briefly, the chelates of Formula III (10a, MC4801) and IV (10b, MC4803) have been incubated with human serum (32 MBq per 16 ml of serum) at T=37° C. At regular time intervals serum aliquots have been collected and, by using centrifuge filter tubes (Amicon® Ultra-4 3K, Merck Millipore) and by centrifuging at 5500 g, the serum proteins have been separated from the non-protein fraction of serum and the radioactivity of both fractions has been measured with a liquid scintillation β counter (scintillation liquid used is Perkin Elmer ULTIMA GOLD).

Q: Which results are given for `N=C(N)NCc1cccc(C(=O)NCCNC(=O)CN2CCN(CC(=O)[O-])CCN(CC(=O)[O-])CCN(CC(=O)[O-])CC2)c1.[89Y+3]` [1a]?
A: IC50 ([1]; 50 nM ^3H-NE, 1 hour incubation, 37° C., read-out: inhibition of the ^3H-NE uptake IC50): ~10 µM; inhibition of the uptake/internalization of ^3H-NE (competition with ^3H-NE) ([1]; 50 nM ^3H-NE, 37° C.): dose-dependent inhibition; substrate of NET compared with MIBG [1]: substrate of NET analogously to MIBG, even though with lower power; cytotoxic effects [2]: without dose-dependent cytotoxic effects; chemical purity after 5 days ([3]; PBS buffer c=0.9 mg/ml, T=37° C., HPLC UV 214 nm, 5 days): higher than 99.5%; Area 1 (chromatographic peak of compound 1a) ([3]; time 0 min): 34.78; Area (1 + 2) (peaks of compound 1a and impurity 2) ([3]; time 0 min): 35.13; Area 1 (chromatographic peak of compound 1a) ([3]; time 30 min): 35.09; Area (1 + 2) (peaks of compound 1a and impurity 2) ([3]; time 30 min): 35.29; Area 1 (chromatographic peak of compound 1a) ([3]; time 1 hour 30 min): 35.07; Area (1 + 2) (peaks of compound 1a and impurity 2) ([3]; time 1 hour 30 min): 35.30; Area 1 (chromatographic peak of compound 1a) ([3]; time 5 hours): 35.13; Area (1 + 2) (peaks of compound 1a and impurity 2) ([3]; time 5 hours): 35.40; Area 1 (chromatographic peak of compound 1a) ([3]; time 21 hours): 37.15; Area (1 + 2) (peaks of compound 1a and impurity 2) ([3]; time 21 hours): 37.45; Area 1 (chromatographic peak of compound 1a) ([3]; time 5 days): 38.34; Area (1 + 2) (peaks of compound 1a and impurity 2) ([3]; time 5 days): 38.65

Q: Which “loss of radioactivity (^90Y^3+) in favor of the protein fraction of serum” value (“loss … of the protein fraction of serum” for short) [4] does the source give for `N=C(N)NCc1cccc(C(=O)NCCCNC(=O)CN2CCN(CC(=O)[O-])CCN(CC(=O)[O-])CCN(CC(=O)[O-])CC2)c1.[90Y+3]` [10a] here?
A: no measurable loss of radioactivity

Q: Which “inhibition of the uptake/internalization of ^3H-NE (competition with ^3H-NE)” value ([1]; 50 nM ^3H-NE, 37° C.) does the source give for `N=C(N)NCc1cccc(C(=O)NCCCNC(=O)CN2CCN(CC(=O)[O-])CCN(CC(=O)[O-])CCN(CC(=O)[O-])CC2)c1.[89Y+3]` [10a′] here?
A: dose-dependent inhibition

Q: And the “substrate of NET compared with MIBG” value [1]?
A: substrate of NET analogously to MIBG, even though with lower power

Q: What about the “substrate of NET compared with MIBG” value ([1]; listed as Formula III) of the same compound?
A: substrates of NET analogously to MIBG

Q: What about the cytotoxic effects [2] of the same compound?
A: without dose-dependent cytotoxic effects

Q: And the cytotoxic effects ([2]; listed as Formula III)?
A: without cytotoxic effects

Q: For `N=C(N)NCc1cccc(C(=O)NCCCCNC(=O)CN2CCN(CC(=O)[O-])CCN(CC(=O)[O-])CCN(CC(=O)[O-])CC2)c1.[90Y+3]` [10b], which “loss … of the protein fraction of serum” value [4] is on record?
A: no measurable loss of radioactivity

Q: For `N=C(N)NCc1cccc(C(=O)NCCCNC(=O)CN2CCN(CC(=O)O)CCN(CC(=O)O)CCN(CC(=O)O)CC2)c1` [13a, 2,2′,2″-(10-(2-((3-(3-(guanidinomethyl)benzamido)propyl)amino)-2-oxoethyl)-1,4,7,10-tetraazacyclododecane-1,4,7-triyl) triacetic acid], which “inhibition of the uptake/internalization of ^3H-NE (competition with ^3H-NE)” value ([1]; 50 nM ^3H-NE, 37° C.) is on record?
A: completely unable to compete

Q: With `CC(CCNC(=O)CN1CCN(CC(=O)O)CCN(CC(=O)O)CCN(CC(=O)O)CC1)NC(=O)c1cccc(CNC(=N)N)c1` (stereo not drawn) [13b, 2,2′,2″-(10-(2-((3-(3-(guanidinomethyl)benzamido)butyl)amino)-2-oxoethyl)-1,4,7,10-tetraazacyclododecane-1,4,7-triyl) Triacetic Acid] as the compound, how does the “inhibition of the uptake/internalization of ^3H-NE (competition with ^3H-NE)” value ([1]; 50 nM ^3H-NE, 37° C.) read?
A: completely unable to compete

Q: With `N=C(N)NCc1cccc(I)c1` [MIBG, reference compound] as the compound, how does the “competition of positive control with ^3H-NE for the internalization” value ([1]; non-marked MIBG at 2 μM) read?
A: compete with ^3H-NE for the internalization

Q: Which “competition of positive control with ^3H-NE for the internalization” value ([1]; non-marked ^1H-NE at 20 μM) does the source give for `NC[C@H](O)c1ccc(O)c(O)c1` [^1H-NE, reference compound] here?
A: compete with ^3H-NE for the internalization

Q: For `N=C(N)NCc1cccc(C(=O)NCCNC(=O)CN2CCN(CC(=O)[O-])CCN(CC(=O)[O-])CCN(CC(=O)[O-])CC2)c1.[90Y+3]` [compound 1], which “loss … of the protein fraction of serum” value [4] is on record?
A: no measurable loss of radioactivity

Q: With `N=C(N)NCc1cccc(C(=O)NCCNC(=O)CN2CCN(CC(=O)O)CCN(CC(=O)O)CCN(CC(=O)O)CC2)c1` [compound 9, 2,2′,2″-(10-(2-((2-(3-(guanidinomethyl)benzamido)ethyl)amino)-2-oxoethyl)-1,4,7,10-tetraazacyclododecane-1,4,7-triyl) triacetic acid] as the compound, how does the “inhibition of the uptake/internalization of ^3H-NE (competition with ^3H-NE)” value ([1]; 50 nM ^3H-NE, 37° C.) read?
A: completely unable to compete

Source: patent US20220072165A1, “RADIODRUG FOR DIAGNOSTIC/THERAPEUTIC USE IN NUCLEAR MEDICINE AND RADIO-GUIDED MEDICINE” (UNIVERSITÀ DEGLI STUDI DI ROMA "LA SAPIENZA", priority 2019, published 2022)
